The values that follow come from patent publication US20090076172A1, “Prolonged Deactivation” (priority 2004, published 2009).

The target in this test is T1, Der p1 allergen (Dermatophagoides pteronyssinus, UniProt P08176).
T1 construct: House dust was passed through a number of sieves and the fraction smaller than 53 μm was collected; from tissue; host or cells: house dust (sieved fraction smaller than 53 μm)
Description: Der p1 allergen reduction in house dust after vapour exposure in a booth (ELISA). The settings on record: 0.8 ml β-pinene on 6 ml water vaporised by oil burner, house dust on PTFE tray, vs pre-treatment control. An excerpt:
When using house dust for allergen denaturing tests an inherent difficulty is the variability of the amount of allergen in each small sample, even when taken from the same dust reservoir. The amount of dust in the pre-treatment sample must be accurately estimated in order to determine the extent of any allergen denaturing. In these tests the dust sample was applied to the test exposure surface and then one half of this surface dust was removed to measure the control pre-treatment allergen level of that specific sample. Each control was directly relevant to each sample, which gave the best possible estimate of the level of allergen in the sample before exposure to possible denaturant. All tests employed a glass reinforced plastic booth of size 0.7 m×0.7 m×1.0 m. All tests had 5 or 6 replicates. Average values are stated.
The following Examples all measure the reduction of the house dust mite Dermatophagoides pteronyssinus allergen—Der p1.
House dust was passed through a number of sieves and the fraction smaller than 53 μm was collected. 0.025 g of dust was placed in a small sieve to distribute it evenly over the test surface. The test surface was a PTFE (polytetrafluoroethylene—trade mark TEFLON) coated metal tray of size 30 cm×30 cm. The dust was applied to the tray by moving the sieve continuously over the surface while tapping the sieve. One half of the dust was then removed by suction onto an in-line filter and the weight recorded, this was the pre-treatment control. The tray was then placed in the booth. An oil burner containing 0.8 ml of β-pinene floated on 6ml of distilled water was placed in the booth, and the booth was sealed. The oil burner candle was lit and allowed to burn, under the oil/water until all the liquid had been vaporised (approximately 30 minutes). The candle was then smothered. After 24 hours the tray was removed, the dust was collected from it and its weight recorded. The booth was washed with strong detergent between tests.
The test samples were assayed for the Der p1 allergen using an ELISA (enzyme linked immunosorbent assay) to determine the allergen content. This was then related to the weight of dust that had been present in each sample. All of the samples were multiplied up to compare the amount of allergen expected to be present in a 0.1 g sample of dust. The percentage difference between the control sample and the exposed sample was then obtained. One analysis was carried out on week 0 (24 hours after the tests were completed. Another analysis was carried out after 2 weeks.
Corresponding tests were carried out and the same ELISA analysis carried out at Week 0 and after 4 weeks.
On the technique in general: ELISA stands for enzyme-linked immunosorbent assay.

T1 sequence (P08176 99-320): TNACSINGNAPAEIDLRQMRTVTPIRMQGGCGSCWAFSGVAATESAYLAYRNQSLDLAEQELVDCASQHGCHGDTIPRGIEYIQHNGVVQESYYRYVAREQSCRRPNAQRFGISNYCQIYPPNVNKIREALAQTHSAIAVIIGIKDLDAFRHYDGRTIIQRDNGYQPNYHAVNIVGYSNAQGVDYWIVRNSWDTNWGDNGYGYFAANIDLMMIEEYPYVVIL

For the molecule `C=C1CCC2CC1C2(C)C` (stereo not drawn) [β-pinene], the “Der p1 allergen reduction” value by setting is: (corresponding (second) test series, Week 0) “Week 0-77.5%”; (corresponding (second) test series, Week 4 (analysis after 4 weeks)) “Week 4-91.6%”; (first test series, Week 0 (24 hours after the tests were completed)) “Week 0-68.0%”; (first test series, Week 2 (analysis after 2 weeks)) “Week 2-66.3%”.
